Results taken from US20240182859A1, “MEDIUM COMPOSITION FOR CULTURING MUSCLE STEM CELL COMPRISING CURCUMIN LONGA, GLYSIN, OR INSULIN FOR PROLIFERATION OF MUSCLE STEM CELL” (HYUPSUNG UNIVERSITY INDUSTRY-ACADEMIC COOPERATION FOUNDATION, priority 2021, published 2024).

Key:
Nanog = experiment: qPCR expression level of Nanog (muscle stem cell marker) in cultured muscle stem cells; type: cell-based, bovine
Description: (§1) In detail, first, bovine rump meat was treated with trypsin, and then primary-cultured to obtain bovine muscle stem cells. Afterwards, a culture medium supplemented with curcumin and bFGF was prepared by varying the concentration of curcumin (0.1 μm, 1 μm, 5 μm, 8 μm, and 10 8 μm, respectively) in a DMEM basal medium supplemented with 5% FBS and 8 ng/ml of bFGF, and the muscle stem cells were cultured through passage culture twice.
(§2) In detail, first, bovine rump meat was treated with trypsin, and then primary-cultured to obtain bovine muscle stem cells. Afterwards, a culture medium supplemented with curcumin was prepared by varying the concentration of curcumin (0.1 μm, 1 μm, 5 μm, 8 μm, and 10 μm, respectively) in a DMEM basal medium supplemented with 5% FBS, and the muscle stem cells were cultured through passage culture twice.
(§3) In detail, first, bovine rump meat was treated with trypsin, and then primary-cultured to obtain bovine muscle stem cells.
(§4) First, bovine rump meat was treated with trypsin, and then primary-cultured to obtain bovine muscle stem cells.
(§5) In detail, first, bovine rump meat was treated with trypsin, and then primary-cultured to obtain bovine muscle stem cells. Afterwards, a culture medium supplemented with insulin and bFGF was prepared by varying the concentration of insulin (0.1 μm, 1 μm, 5 μm, 8 μm, and 10 8 μm, respectively) in a DMEM basal medium supplemented with 5% FBS and 8 ng/ml of bFGF, and the muscle stem cells were cultured through passage culture twice.
(§6) In detail, first, bovine rump meat was treated with trypsin, and then primary-cultured to obtain bovine muscle stem cells. Afterwards, a culture medium supplemented with insulin was prepared by varying the concentration of insulin (0.1 μm, 1 μm, 5 μm, 8 μm, and 10 μm, respectively) in a DMEM basal medium supplemented with 5% FBS, and the muscle stem cells were cultured through passage culture twice.

bovine muscle stem cells = experiment: Proliferation of bovine muscle stem cells in supplemented DMEM culture medium; type: cell-based
Description: as §3
In detail, first, bovine rump meat was treated with trypsin, and then primary-cultured to obtain bovine muscle stem cells. […] As a control, a DMEM basal medium supplemented with 5% FBS was used.
In detail, first, bovine rump meat was treated with trypsin, and then primary-cultured to obtain bovine muscle stem cells. Afterwards, the muscle stem cells were cultured in the DMEM basal medium supplemented with 5% FBS and 10 μM of insulin, and the proliferation of the muscle stem cells was measured. As a control, a DMEM basal medium supplemented with 5% FBS was used.

Oct4 = experiment: qPCR expression level of Oct4 (muscle stem cell marker) in cultured muscle stem cells; type: cell-based, bovine
Description: as §1, §2, §3, §4, §5, §6

Pax7 = experiment: qPCR expression level of Pax7 (myoblast marker) in cultured muscle stem cells; type: cell-based, bovine; settings: for expression of Pax7, concentration dependence: concentration series
Description: as §1, §2, §3, §4, §5, §6

[1] = bFGF-free medium with 5% FBS, overall statement
[2] = medium with 5% FBS + 8 ng/ml bFGF, overall statement, passage culture twice
[3] = medium with 5% FBS + 8 ng/ml bFGF
[4] = glycine 1 mM to 50 mM, bFGF-free
[5] = insulin 10 μm or more, with 8 ng/ml bFGF

COc1cc(/C=C/C(=O)CC(=O)/C=C/c2ccc(O)c(OC)c2)ccc1O [curcumin]
expression of Nanog (Nanog; [1]): maintained | expression of Nanog vs curcumin-free DMSO control (Nanog; curcumin 0.1 μm and 1 μm, with 8 ng/ml bFGF): increased by about twice | expression of Nanog (Nanog; curcumin 5 μm or more, with 8 ng/ml bFGF): significantly decreased | expression of Nanog (Nanog; curcumin 8 μm, bFGF-free): significantly decreased | expression of Nanog (Nanog; [2]): increased | cell proliferation rate increase compared to basal medium (bovine muscle stem cells; 8 μm curcumin, DMEM + 5% FBS + 8 ng/ml bFGF, cultured for 29 days): ≥ 1.5 times | cell proliferation rate increase compared to basal medium (bovine muscle stem cells; 8 μm curcumin, DMEM + 5% FBS, bFGF-free, cultured for 41 days): ≥ 1.5 times | expression of Oct4 vs curcumin-free DMSO control (Oct4; curcumin 0.1 μm to 5 μm, with 8 ng/ml bFGF): increased by about twice | expression of Oct4 vs curcumin-free DMSO control (Oct4; curcumin 1 μm to 5 μm, bFGF-free): increased by at least about twice | expression of Oct4 (Oct4; curcumin 8 μm or more, with 8 ng/ml bFGF): significantly decreased | expression of Oct4 (Oct4; curcumin 8 μm, bFGF-free): significantly decreased | expression of Oct4 (Oct4; [2]): increased | expression of Pax7, concentration dependence (Pax7; bFGF-free medium with 5% FBS): increased in proportion to the concentration of curcumin | expression of Pax7 (Pax7; curcumin 8 μm, bFGF-free): significantly increased | expression of Pax7, concentration dependence (Pax7; [3]): increased in proportion to the concentration of curcumin

NCC(=O)O [glycine]
expression of Nanog vs glycine-free DMSO control (Nanog; [4]): increased by about twice | expression of Nanog vs glycine-free DMSO control (Nanog; glycine 10 mM to 100 mM, with 8 ng/ml bFGF): increased by about twice | expression of Nanog (Nanog; glycine 100 mM, bFGF-free): significantly decreased | expression of Nanog (Nanog; glycine 150 mM or more, with 8 ng/ml bFGF): significantly decreased | expression of Nanog (Nanog; [2]): increased | cell proliferation rate increase compared to basal medium (bovine muscle stem cells; 100 mM glycine, DMEM + 5% FBS + 8 ng/ml bFGF, cultured for 29 days): ≥ 1.5 times | cell proliferation rate increase compared to basal medium (bovine muscle stem cells; 100 mM glycine, DMEM + 5% FBS, bFGF-free, cultured for 41 days): ≥ 4.1 times | expression of Oct4 vs glycine-free DMSO control (Oct4; [4]): increased by about twice | expression of Oct4 increase vs glycine-free DMSO control (Oct4; glycine 1 mM to 50 mM, with 8 ng/ml bFGF): about 2.3 times | expression of Oct4 (Oct4; glycine 100 mM or more, with 8 ng/ml bFGF): significantly decreased | expression of Oct4 (Oct4; glycine 100 mM, bFGF-free): significantly decreased | expression of Oct4 (Oct4; [2]): increased | expression of Pax7 increase vs insulin-free DMSO control (Pax7; 10 µM, bFGF-free insulin culture medium): ≥ 6 times | expression of Pax7, concentration dependence (Pax7; bFGF-free medium with 5% FBS): increased in proportion to the concentration of glycine | expression of Pax7 increase vs glycine-free DMSO control (Pax7; glycine 100 mM or more, bFGF-free): ≥ 3 times | expression of Pax7, concentration dependence (Pax7; [3]): increased in proportion to the concentration of glycine

insulin
expression of Nanog (Nanog; [1]): maintained | expression of Nanog (Nanog; [5]): significantly decreased | expression of Nanog (Nanog; insulin 10 μm, bFGF-free): significantly decreased | expression of Nanog (Nanog; [2]): increased | cell proliferation rate increase compared to basal medium (bovine muscle stem cells; 10 μm insulin, DMEM + 5% FBS + 8 ng/ml bFGF, cultured for 29 days): ≥ 6 times | cell proliferation rate increase compared to basal medium (bovine muscle stem cells; 10 μm insulin, DMEM + 5% FBS, bFGF-free, cultured for 41 days): ≥ 13 times | expression of Oct4 (Oct4; [1]): increased | expression of Oct4 (Oct4; [5]): significantly decreased | expression of Oct4 (Oct4; [2]): increased | expression of Pax7, concentration dependence (Pax7; bFGF-free medium with 5% FBS): increased in proportion to the concentration of insulin | expression of Pax7, concentration dependence (Pax7; [3]): increased in proportion to the concentration of insulin
